Experimental data: patent publication US20110217241A1, “CONJUGATES OF 19F MR IMAGING TRACERS FOR USE IN MULTI-CHROMIC MRI IMAGING” (University of Maryland, Baltimore, priority 2008, published 2011)

What was measured:
[1] = 19F resonance frequency (chemical shift) with different metal ions; assay type: physicochemical; conditions: FIG. 6
Source text: In FIG. 6, the darker bars indicate paramagnetic ion complexes and the lighter bars indicate diamagnetic complexes. As shown in the graph of FIG. 6, the different metal ions led to different ^19F resonance frequencies, ranging from δ(^19FIT-Bi^3+)=−71.17 ppm to δ(^19FIT-Tb^3+)=−63.32 ppm. In each case, there was a single ^19F signal.

[2] = 19F relaxation times (T1, T2) under different solution conditions; assay type: physicochemical; conditions: for Relaxation Times T1 / Relaxation Times T2 / T1 percentage relative to T1 under Condition 1 / T2 percentage relative to T2 under Condition 1: pH 7, 50 mM; for Relaxation Times T1 / Relaxation Times T2 / pH dependency of 19F relaxation times T1 and T2: 11.7 Tesla; for pH dependency of 19F relaxation times T1 and T2: pH 6, 7 & 8
Method: The ^19F T1 and T2 were determined under different solution conditions for the paramagnetic ^19FIT-Gd^3+ and for the diamagnetic ^19FIT-Y^3+ from the above example (and shown in FIG. 6). The conditions and results are summarized below in Table 1. The percentage numbers for Conditions 2-5 were calculated relative to T1 or T2 under Condition 1. […] For example, the weakly paramagnetic O2 had little effect on the ^19F T1 and T2 of ^19FIT-Gd^3+.
19F T1 and T2 were also determined for ^19FIT-Gd^3+ and ^19FIT-Y^3+ at different pH values (pH 6 7 & 8). […] The NMR field strength for the testing was 11.7 Tesla.

[3] = Condition 1: PBS buffer saturated with N2, 25° C.
[4] = Condition 2: PBS buffer saturated with O2, 25° C.
[5] = Condition 3: PBS buffer saturated with N2, 45° C.
[6] = Condition 4: Human sera with 10% D2O saturated with N2, 25° C.
[7] = Condition 5: 10% w/v bovine serum albumin in PBS buffer saturated with N2, 25° C.

SMILES | 19F resonance frequency δ [1] | Relaxation Times T1 [2, 3] | Relaxation Times T2 [2, 3] | T1 percentage relative to T1 under Condition 1 [2, 4] | T2 percentage relative to T2 under Condition 1 [2, 4] | Relaxation Times T1 [2, 4] | Relaxation Times T2 [2, 4] | T1 percentage relative to T1 under Condition 1 [2, 5] | T2 percentage relative to T2 under Condition 1 [2, 5] | Relaxation Times T1 [2, 5] | Relaxation Times T2 [2, 5] | T1 percentage relative to T1 under Condition 1 [2, 6] | T2 percentage relative to T2 under Condition 1 [2, 6] | Relaxation Times T1 [2, 6] | Relaxation Times T2 [2, 6] | T1 percentage relative to T1 under Condition 1 [2, 7] | T2 percentage relative to T2 under Condition 1 [2, 7] | Relaxation Times T1 [2, 7] | Relaxation Times T2 [2, 7] | pH dependency of 19F relaxation times T1 and T2 [2] | other results
O=C([O-])CN1CCN(CC(=O)[O-])CCN(CC(=O)NCCOCCOCCOCCOC(C(F)(F)F)(C(F)(F)F)C(F)(F)F)CCN(CC(=O)[O-])CC1.[Bi+3] [^19FIT-Bi^3+] | −71.17 ppm | – | – | – | – | – | – | – | – | – | – | – | – | – | – | – | – | – | – | – | –
O=C([O-])CN1CCN(CC(=O)[O-])CCN(CC(=O)NCCOCCOCCOCCOC(C(F)(F)F)(C(F)(F)F)C(F)(F)F)CCN(CC(=O)[O-])CC1.[Gd+3] [^19FIT-Gd^3+] | – | 4.24 ms | 1.66 ms | (−0.7%) | (−6.0%) | 4.27 ms | 1.56 ms | (−6.4%) | (−26.5%) | 3.97 ms | 1.22 ms | (−0.7%) | (−48.2%) | 4.27 ms | 0.86 ms | (6.6%) | (−66.9%) | 4.52 ms | 0.55 ms | neither complex showed significant pH dependency | effect of weakly paramagnetic O2 on 19F T1 and T2 ([2]; Condition 2 vs Condition 1): little effect
O=C([O-])CN1CCN(CC(=O)[O-])CCN(CC(=O)NCCOCCOCCOCCOC(C(F)(F)F)(C(F)(F)F)C(F)(F)F)CCN(CC(=O)[O-])CC1.[Tb+3] [^19FIT-Tb^3+] | −63.32 ppm | – | – | – | – | – | – | – | – | – | – | – | – | – | – | – | – | – | – | – | –
O=C([O-])CN1CCN(CC(=O)[O-])CCN(CC(=O)NCCOCCOCCOCCOC(C(F)(F)F)(C(F)(F)F)C(F)(F)F)CCN(CC(=O)[O-])CC1.[Y+3] [^19FIT-Y^3+] | – | 1498 ms | 1057 ms | (−28.3%) | (−37.1%) | 1074 ms | 665 ms | (42.4%) | (43.0%) | 2133 ms | 1511 ms | (−19.2%) | (−79.8%) | 1211 ms | 214 ms | (−19.9%) | (−86.8%) | 1200 ms | 139 ms | neither complex showed significant pH dependency | –
